Experiments:
human CRTH2-Rluc = target: T1, human CRTH2-Rluc (Homo sapiens, UniProt Q9Y5Y4, V204A); assay: Functional antagonist BRET assay on HEK293 cells stably expressing CRTH2-Rluc and GFP2-β-arr2; format: cell-based; settings: antagonist incubated 15 minutes before agonist, read-out: Antag. IC50
T1 construct: expressed in transfected cells
T1 sequence (Q9Y5Y4 1-395 V204A): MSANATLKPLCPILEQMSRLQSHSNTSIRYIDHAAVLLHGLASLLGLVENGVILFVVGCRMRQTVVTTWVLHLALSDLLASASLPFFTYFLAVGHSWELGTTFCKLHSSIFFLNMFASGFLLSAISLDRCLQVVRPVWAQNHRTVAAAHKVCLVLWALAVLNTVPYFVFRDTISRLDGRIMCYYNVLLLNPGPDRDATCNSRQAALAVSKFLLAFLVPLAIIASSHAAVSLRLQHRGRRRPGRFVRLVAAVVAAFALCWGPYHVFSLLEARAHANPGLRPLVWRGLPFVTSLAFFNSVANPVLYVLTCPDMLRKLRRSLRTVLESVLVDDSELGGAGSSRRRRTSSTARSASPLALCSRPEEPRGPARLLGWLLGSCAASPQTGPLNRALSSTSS
Description: (§1) Generation/origin of the cDNA Constructs. The coding sequence of the human CRTH2 receptor (genbank accession no NM_004778) was amplified by PCR from a human hippocampus cDNA library and inserted into the pcDNA3.1(+) expression vector (invitrogen) via 5′ HindIII and 3′ EcoRI. To generate a CRTH2-Renilla luciferase (CRTH2-Rluc) fusion protein, the CRTH2 coding sequence without a STOP codon and Rluc were amplified, fused in frame by PCR and subcloned into the pcDNA3.1(+)Zeo expression vector (invitrogen). Human β-arrestin2 (β-arr2) N-terminally tagged with GFP^2 (βarr2-GFP^2) and Renilla luciferase were purchased from BioSignal Packard Inc, (Montreal, Canada). The sequence identity of the construct was verified by restriction endonuclease digests and sequencing in both directions on an ABI Prism (Applied Biosystems, Foster City, Calif.).
(§2) Cell Culture and Transfection. COS-7 cells were grown in Dulbecco's modified Eagle's medium (DMEM) 1885 supplemented with 10% fetal bovine serum, 100 units/ml penicillin, […] streptomycin, and kept at 37° C. in a 10% CO2 atmosphere. HEK293 cells were maintained in Minimum Essential medium (MEM) supplemented with 10% (v/v) heat inactivated fetal calf serum (HIFCS), 2 mM Glutamax™-I, 1% non essential amino acids (NEAA), 1% sodium pyruvate and 10 μg/ml gentamicin. For binding experiments, COS7 cells were transiently transfected with the CRTH2 receptor using a calcium phosphate-DNA coprecipitation method with the addition of chloroquine (as described by Hoist et al., 2001*). To perform the functional Bioluminescence Resonance Energy Transfer (BRET) assays, a HEK293 cell clone stably expressing βarr2-GFP^2 and CRTH2-Rluc was generated (CRTH2-HEK293 cells).
BRET assay. Functional BRET assays were performed on HEK293 cells stably expressing human CRTH2-Rluc and GFP^2-β-arr2. Prior to their use in the BRET assay cells were detached and re-suspended in D-PBS with 1000 mg/L L-Glucose at a density of 2×10^6 cells/mL. DeepBlueC™ was diluted to 50 μM in D-PBS with 1000 mg/L L-Glucose (light sensitive). 100 μL of cell suspension was transferred to wells in a 96-well microplate (white OptiPlate) and placed in the Mithras LB 940 instrument (BERTHOLD TECHNOLOGIES, Bad Wildbad, Germany). 12 μL/well agonist was then injected by injector 1 and 10 μL/well DeepBlueC™ was injected simultaneously by injector 2. Five seconds after the injections the light output from the well was measured sequentially at 400 nm and 515 nm, and the BRET signal (mBRET ratio) was calculated by the ratio of the fluorescence emitted by GFP^2-β-arr2 (515 nm) over the light emitted by the receptor-Rluc (400 nm). Antagonists were added before placing the microplates into the Mithras LB 940 and allowed to incubate for 15 minutes prior to the addition of agonist and DeepBlueC™. Compounds were dissolved in DMSO and the final DMSO concentration was kept constant at 1% in the assay.
(§3) Curve analysis was performed with the GraphPadPrism software 3.0 (Graphpad Prism Inc., San Diego, USA) and IC50 values were calculated as a measure of the antagonistic potencies.

human CRTH2 receptor = target: T2, human CRTH2 receptor (Homo sapiens, UniProt Q9Y5Y4, V204A); assay: Receptor binding assay: [3H]PGD2 competition on whole COS-7 cells transfected with CRTH2; settings: 0.1 nM [3H]PGD2, whole cells, 3 h at 4° C.
T2 construct: expressed in transfected cells; host or cells: COS-7 cells, transient, pcDNA3.1(+)
T2 sequence (Q9Y5Y4 1-395 V204A): T1 sequence (Q9Y5Y4 1-395 V204A)
Description: as §1, §2
Binding assay. 24 h after transfection COS-7 cells were seeded into 96 well plates at a density of 30.000 cells/well. Competition binding experiments on whole cells were then performed about 18-24 h later using 0.1 nM [^3H]PGD2 (NEN, 172 Ci/mmol) in a binding buffer consisting of HBSS (GIBCO) and 10 mM HEPES. Competing ligands were diluted in DMSO which was kept constant at 1% (v/v) of the final incubation volume. Total and nonspecific binding were determined in the absence and presence of 10 μM PGD2. Binding reactions were routinely conducted for 3 h at 4° C. and terminated by 2 washes (100 μl each) with ice cold binding buffer. Radioactivity was determined by liquid scintillation counting in a TOPCOUNTER (Packard) following over night incubation in Microscint 20. Stable HEK293 cells were seeded at a density of 30.000 cells/well 18-24 h prior to the binding assay which was performed essentially as described for COS7 cells above. Determinations were made in duplicates.
as §3

SMILES	IC50 (human CRTH2-Rluc) [nM]	IC50 (human CRTH2 receptor) [nM]
O=C(O)Cc1sc(C(c2ccc(F)cc2)c2ccc(F)cc2)nc1-c1cccc(F)c1 [Compound A27, [2-[Bis-(4-fluoro-phenyl)-methyl]-4-(3-fluoro-phenyl)-thiazol-5-yl]-acetic acid]	< 500	< 500
O=C(O)Cc1sc(Cc2ccccc2-c2cccc(OC(F)(F)F)c2)nc1-c1ccc(F)cc1 [Compound A44, [4-(4-Fluoro-phenyl)-2-(3′-trifluoromethoxy-biphenyl-2-ylmethyl)-thiazol-5-yl]-acetic acid]		< 500
COc1ccccc1-c1ccccc1Cc1nc(-c2ccc(F)cc2)c(CC(=O)O)s1 [Compound A41, [4-(4-Fluoro-phenyl)-2-(2′-methoxy-biphenyl-2-ylmethyl)-thiazol-5-yl]-acetic acid]		< 500
CC(=O)Nc1cccc(-c2ccccc2Cc2nc(-c3ccc(F)cc3)c(CC(=O)O)s2)c1 [Compound A39, [2-(3′-Acetylamino-biphenyl-2-ylmethyl)-4-(4-fluoro-phenyl)-thiazol-5-yl]-acetic acid]		500 to 5000
O=C(O)Cc1sc(C(c2ccccc2)c2ccc(O)cc2)nc1-c1ccc(F)cc1 (centres unmarked) [Compound A22, {4-(4-Fluoro-phenyl)-2-[(4-hydroxy-phenyl)-phenyl-methyl]-thiazol-5-yl}-acetic acid]	< 500	< 500
COc1ccc(C(c2ccc(OC)cc2)c2nc(-c3ccc(F)cc3)c(CC(=O)O)s2)cc1 [Compound A20, [2-[Bis-(4-methoxy-phenyl)-methyl]-4-(4-fluoro-phenyl)-thiazol-5-yl]-acetic acid]	< 500	< 500
CC(=O)N1CCC(c2ccccc2)(c2nc(-c3ccc(Cl)cc3)c(CC(=O)O)s2)CC1 [Compound A45]	500 to 5000	< 500
COc1ccc(C(c2ccccc2)c2nc(-c3ccc(F)cc3)c(CC(=O)O)s2)cc1 (centres unmarked) [Compound A15, {4-(4-Fluoro-phenyl)-2-[(4-methoxy-phenyl)-phenyl-methyl]-thiazol-5-yl}-acetic acid]	< 500	< 500
O=C(O)Cc1sc(C(c2ccccc2)c2ccccn2)nc1-c1ccc(Cl)cc1 (centres unmarked) [Compound A28, [4-(4-Chloro-phenyl)-2-(phenyl-pyridin-2-yl-methyl)-thiazol-5-yl]-acetic acid]	500 to 5000	< 500
CCC(c1ccccc1)c1nc(-c2ccc(Cl)cc2)c(CC(=O)O)s1 (centres unmarked) [Compound A6, [4-(4-Chloro-phenyl)-2-(1-phenyl-propyl)-thiazol-5-yl]-acetic acid]		< 500
COc1ccc(C(c2ccccn2)c2nc(-c3ccc(F)cc3)c(CC(=O)O)s2)cc1 (centres unmarked) [Compound A30, {4-(4-Fluoro-phenyl)-2-[(4-methoxy-phenyl)-pyridin-2-yl-methyl]-thiazol-5-yl}-acetic acid]		< 500

The next lines start with the values.

IC50 (human CRTH2-Rluc) [nM]	IC50 (human CRTH2 receptor) [nM]	SMILES
< 500	< 500	N#Cc1ccc(-c2ccccc2Cc2nc(-c3ccc(F)cc3)c(CC(=O)O)s2)cc1 [Compound A38, [2-(4′-Cyano-biphenyl-2-ylmethyl)-4-(4-fluoro-phenyl)-thiazol-5-yl]-acetic acid]
< 500	< 500	O=C(O)Cc1sc(C(c2ccccc2)c2ccccc2)nc1-c1ccc(F)cc1 [Compound A4, [2-Benzhydryl-4-(4-fluoro-phenyl)-thiazol-5-yl]-acetic acid]
< 500	< 500	O=C(O)Cc1sc(Cc2ccccc2-c2ccc3c(c2)OCO3)nc1-c1ccc(F)cc1 [Compound A42, [2-(2-Benzo[1,3]dioxol-5-yl-benzyl)-4-(4-fluoro-phenyl)-thiazol-5-yl]-acetic acid]
500 to 5000	< 500	O=C(O)Cc1sc(C(c2ccccc2)c2ccccc2)nc1-c1ccc(Oc2ccccc2)cc1 [Compound A21, [2-Benzhydryl-4-(4-phenoxy-phenyl)-thiazol-5-yl]-acetic acid]
	< 500	O=C(O)Cc1sc(C(c2ccccc2)c2ncccc2Cl)nc1-c1ccc(Cl)cc1 (centres unmarked) [Compound A29, {4-(4-Chloro-phenyl)-2-[(3-chloro-pyridin-2-yl)-phenyl-methyl]-thiazol-5-yl}-acetic acid]
> 5000	< 500	O=C(O)Cc1sc(C(c2ccccc2)c2ccc(F)c(F)c2)nc1-c1ccc(Cl)cc1 (centres unmarked) [Compound A17, {4-(4-Chloro-phenyl)-2-[(3,4-difluoro-phenyl)-phenyl-methyl]-thiazol-5-yl}-acetic acid]
> 5000	< 500	O=C(O)Cc1sc(C(NC(=O)c2ccc(C(F)(F)F)cc2)c2ccccc2)nc1-c1ccc(F)cc1 (centres unmarked) [Compound A19, {4-(4-Fluoro-phenyl)-2-[phenyl-(4-trifluoromethyl-benzoylamino)-methyl]-thiazol-5-yl}-acetic acid]
< 500	< 500	O=C(O)Cc1sc(C(c2ccccc2)c2ccccc2)nc1-c1ccc(F)c(F)c1 [Compound A26, [2-Benzhydryl-4-(3,4-difluoro-phenyl)-thiazol-5-yl]-acetic acid]
	500 to 5000	O=C(O)Cc1sc(Cc2ccccc2Oc2ccccc2)nc1-c1ccc(Cl)cc1 [Compound A35, [4-(4-Chloro-phenyl)-2-(2-phenoxy-benzyl)-thiazol-5-yl]-acetic acid]
< 500	< 500	COc1cccc(-c2ccccc2Cc2nc(-c3ccc(F)cc3)c(CC(=O)O)s2)c1 [Compound A37, [4-(4-Fluoro-phenyl)-2-(3′-methoxy-biphenyl-2-ylmethyl)-thiazol-5-yl]-acetic acid]
< 500	< 500	O=C(O)Cc1sc(C(c2ccccc2)c2ccc(F)c(F)c2)nc1-c1ccc(F)cc1 (centres unmarked) [Compound A18, [2-[(3,4-Difluoro-phenyl)-phenyl-methyl]-4-(4-fluoro-phenyl)-thiazol-5-yl]-acetic acid]
< 500	< 500	O=C(O)Cc1sc(C(c2ccccc2)c2ccccc2)nc1-c1cccc(F)c1 [Compound A23, [2-Benzhydryl-4-(3-fluoro-phenyl)-thiazol-5-yl]-acetic acid]
	< 500	N#Cc1cccc(-c2ccccc2Cc2nc(-c3ccc(F)cc3)c(CC(=O)O)s2)c1 [Compound A43, [2-(3′-Cyano-biphenyl-2-ylmethyl)-4-(4-fluoro-phenyl)-thiazol-5-yl]-acetic acid]
	500 to 5000	O=C(O)Cc1sc(C(c2ccccc2)C2CCCCC2)nc1-c1ccc(Cl)cc1 (centres unmarked) [Compound A32, [4-(4-Chloro-phenyl)-2-(cyclohexyl-phenyl-methyl)-thiazol-5-yl]-acetic acid]

Source: US20080119456A1, “Substituted Thiazoleacetic Acid as Crth2 Ligands” (priority 2004, published 2008)
